# Values of other authors in patent US8518957B2, “Methanocarba adenosine derivatives, pharmaceutical compositions, and method of reducing intraocular pressure” (The United States of America, as represented by the …, priority 2009, dated 2013).
# Biological target: T1, human A3AR (Homo sapiens, UniProt P0DMS8)
# T1 construct: expressed in transfected cells
# T1 sequence (P0DMS8 1-318): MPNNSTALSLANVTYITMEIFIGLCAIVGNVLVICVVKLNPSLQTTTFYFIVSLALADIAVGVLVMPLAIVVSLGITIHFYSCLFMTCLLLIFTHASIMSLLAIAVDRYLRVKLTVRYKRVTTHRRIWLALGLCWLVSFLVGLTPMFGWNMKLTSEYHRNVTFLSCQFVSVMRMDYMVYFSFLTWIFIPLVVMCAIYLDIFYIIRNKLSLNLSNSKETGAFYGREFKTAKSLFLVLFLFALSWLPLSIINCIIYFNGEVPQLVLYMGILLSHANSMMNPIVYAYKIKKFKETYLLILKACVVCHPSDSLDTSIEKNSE
# Conditions: concentration 10 μM; values from Tosh et al.; cited from earlier work
structure (smiles),measurement,value
"CNC(=O)[C@@]12C[C@@H]1[C@@H](n1cnc3c(NCc4cccc(Cl)c4)nc(C#CCCCCc4cn(CCNC(C)=O)nn4)nc31)[C@H](O)[C@@H]2O [Compound 15, (1S,2R,3S,4R,5S)-6-(3-Chlorobenzylamino)-(2-(6-(1-(4-acetamidoethyl)-1H-1,2,3-triazol-4-yl)hex-1-ynyl)-9H-purin-9-yl)-2′,3′-dihydroxybicyclo[3.1.0]hexane-1′-carboxylic acid N-methylamide]",% Inhibition of cAMP accumulation at the hA3AR,93.6 ± 17.7%
